Results taken from patent US5411985A, “Gamma-pyrone-3-acetic acid as an inhibitor or interleukin-1 β inventory enzyme” (Merck & Co., Inc., priority 1993, dated 1995).

How the values were obtained:
[1] = molecular target: T1, interleukin-1β converting enzyme (ICE) (Homo sapiens, UniProt P29466); assay: ICE activity by the procedure of Thornberry et al. (1992); type: biochemical
T1 sequence (P29466 120-297 limits assumed): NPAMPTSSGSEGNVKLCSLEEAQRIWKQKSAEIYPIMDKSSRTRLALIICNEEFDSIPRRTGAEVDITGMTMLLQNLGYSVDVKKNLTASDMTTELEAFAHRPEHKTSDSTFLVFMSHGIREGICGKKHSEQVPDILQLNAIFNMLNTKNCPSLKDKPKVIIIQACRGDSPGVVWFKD
T1 sequence (P29466 317-404 limits assumed): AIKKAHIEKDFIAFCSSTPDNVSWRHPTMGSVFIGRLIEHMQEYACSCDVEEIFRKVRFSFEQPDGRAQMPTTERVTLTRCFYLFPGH
Procedure: Assay for assessing the ICE activity of compound of Formula I
Gamma-pyrone-3-acetic acid was assessed for ICE activity by the procedure of Thomberry, et al (1992) Nature Vol. 356 pp 768-774.

[2] = Solubility of isolated material; type: physicochemical
Procedure: Compound was isolated further by purification using HPLC. Two mL of filtered solution was passed through a C4 radial compression column (25×100 mm, WATERS ASSOCIATES) and an isocratic flow rate of 10 mL per minute of water was used to elute the active compound. A total of 5 runs were performed with fractions being collected at one minute intervals. The fractions were tested for ICE-activity. The active fractions eluted between 9-10 minutes. The ICE-active-rich cuts from each run were pooled and lyophilized. The resulting material appeared to be an oily brown substance that was soluble in water, methanol, and DMSO. Estimates of 7 mg of compound can be isolated from 300 ml of whole broth.

IC50 ([1]; pH 6.5 and 1 mM DDT): 1300 nM | IC50 ([1]; pH 7:5 and 1 mM DDT): 4540 nM | solubility in DMSO ([2]; DMSO): soluble | solubility in methanol ([2]; methanol): soluble | solubility in water ([2]; water): soluble
Compound: O=C(O)Cc1coccc1=O [Gamma-pyrone-3-acetic acid, gamma-pyrone-3-acetic acid]
